The test system of one experiment is MCF7. Nature of the experiment: MTT assay, MCF7 cells. To be noted: Homo sapiens, means of four experiments, na = not active, read-out: In vitro cytotoxic activity (IC50), MCF7. It counts as cell-based. As for the experimental part: The human colorectal adenocarcinoma (Caco-2), human colorectal adenocarcinoma (HT29), normal human intestinal (I407), human cervical cancer (HeLa), human breast cancer (MCF7), human bone osteosarcoma (U2OS), and human acute T-cell leukemia (Jurkat J6) cell lines were purchased from American Type Culture Collection (ATCC, Manassas, VA, USA). Cells were cultured in RPMI 1640 medium (Labtek Eurobio, Milan, Italy), supplemented with 10% FCS (Euroclone, Milano, Italy) and 2 mM L-glutamine (Sigma-Aldrich, Milano, Italy), at 37 °C and in a 5% CO2 atmosphere. The compounds were dissolved in DMSO in a 30–40 mM stock solution. In cell treatments, the final DMSO concentration never exceeded 0.1%.
Cells were seeded in a 96-well culture plastic plate (Sarsted, Milan, Italy), at 5 × 10^4 cells/well and, after 24 h, were exposed to increasing concentrations of the different compounds (from 1 nM to 500 nM) dissolved in RPMI 1640 medium. An MTT assay was performed according to Micheletti et al..
The absorbance at 570 nm was measured using a multi-well plate reader (Tecan, Männedorf, Switzerland), and data were analyzed by Prism GraphPad 8 software and expressed as IC50 nM.

Another experiment has as its system SCD1. The experiment in a line: SCD1 mRNA expression, qRT-PCR. It counts as cell-based, human. To be noted: after 24 h, HT29. On the procedure: Total RNA from control- and 4-treated HT29 cells was isolated using the RNeasy Mini Kit (Qiagen, Hilden, Germany) according to the manufacturer's protocol. RNA was quantified using the NanoDrop spectrophotometer (Thermo Fisher Scientific, Waltham, MA, USA). RNA (1 μg) was transcribed into cDNA using the PrimeScript RT Master Mix (Perfect Real Time) (Takara Bio, Kusatsu, Japan) according to the manufacturer's instructions. Real-time PCR was performed using the Sybr Premix Ex Taq Takara kit (Takara Bio, Kusatsu, Japan) and the LightCycler 2.0 instrument (Roche Diagnostic, Basel, Switzerland). The following primers (Sigma-Aldrich, Milan, Italy) were used: [NT] (forward) and [NT] (reverse) for FASN detection, [NT] (forward) and [NT] (reverse) for SCD1 detection, and [NT] (forward) and [NT] (reverse) for the detection of β-actin. The first gene analyzed was the housekeeping gene β-actin, and its CT values were used as standards in the ΔΔCT method of result analysis. cDNA samples from HT29-treated cells were compared with untreated control cells.
For orientation: Quantitative PCR measures a nucleic acid by following its amplification.

With `CCCCCCCCC[C@H](CCCCCCCC(=O)O)O[Si](C)(C)C(C)(C)C` [Compound 4, (R)-9-((tert-butyldimethylsilyl)oxy)octadecanoic acid], the IC50 in the experiment with MCF7 was determined as 211.6 ± 0.23 nM. For the same compound, the SCD1 gene expression entry in the experiment on SCD1 is “decreases”.

A word on the IC50: it is the point on the concentration scale where inhibition reaches its midpoint.

For the origin of these results see PMC11820896, “New Compounds with Enhanced Biological Activity Through the Strategic Introduction of Silylated Groups into Hydroxystearic Acids” (Molecules, 2025).
